Assay results: ChEMBL document CHEMBL1201862, “PubChem BioAssay data set” (2004)
Calls of active or inactive are those of the source.

Columns and labels:
[1] = tested on: HeLa; experiment: HeLa cell cytotoxicity, dose response, cytotoxicity control for MITF activator project, CellTiter-Glo luminescence, cherry-pick samples (AID 540259); type: functional, cell-based; conditions: Homo sapiens
[2] = target: Beta-2 adrenergic receptor (Homo sapiens, UniProt P07550); experiment: beta2AR agonists driving receptor internalization, dose response, cell-based, FAP fluorogen, flow cytometry, cherry pick 1 (AID 588763); type: functional
[3] = cells; type: functional
[4] = Luminescence Cell-Based Dose Confirmation HTS to Identify Activators of 5'UTR Stem-Loop Driven Alpha-Synuclein mRNA Translation in H4 Neuroglioblastoma Cells. [Related pubchem assays: 1829 (Project Summary), 1814 (Primary HTS)]; type: functional
[5] = Luminescence Cell-Based Dose Response HTS to Identify Activators of Luciferase Translation or Activity in H4 […] Cells. [Related pubchem assays: 1829 (Project Summary), 1814 (Primary HTS)]; type: functional
[6] = tested on: H4; experiment: Luminescence Cell-Based Dose Response HTS to Identify Activators of 5'UTR Stem-Loop Driven Prion Protein mRNA Translation in H4 Neuroglioblastoma Cells. [Related pubchem assays: 1829 (Project Summary), 1814 (Primary HTS)]; type: functional; conditions: Homo sapiens
[7] = tested on: Vero; experiment: cells; type: functional, cell-based; conditions: Chlorocebus sabaeus
[8] = tested on: Vero; experiment: cells; type: functional; conditions: Chlorocebus sabaeus
[9] = target: Glucose-6-phosphate 1-dehydrogenase (Homo sapiens, UniProt P11413); experiment: human G6PD enzyme inhibitors, dose response, selectivity assay for P. falciparum G6PD inhibitor project, biochemical, fluorescence (AID 504792); type: functional
Glucose-6-phosphate 1-dehydrogenase, sequence (P11413 whole entry): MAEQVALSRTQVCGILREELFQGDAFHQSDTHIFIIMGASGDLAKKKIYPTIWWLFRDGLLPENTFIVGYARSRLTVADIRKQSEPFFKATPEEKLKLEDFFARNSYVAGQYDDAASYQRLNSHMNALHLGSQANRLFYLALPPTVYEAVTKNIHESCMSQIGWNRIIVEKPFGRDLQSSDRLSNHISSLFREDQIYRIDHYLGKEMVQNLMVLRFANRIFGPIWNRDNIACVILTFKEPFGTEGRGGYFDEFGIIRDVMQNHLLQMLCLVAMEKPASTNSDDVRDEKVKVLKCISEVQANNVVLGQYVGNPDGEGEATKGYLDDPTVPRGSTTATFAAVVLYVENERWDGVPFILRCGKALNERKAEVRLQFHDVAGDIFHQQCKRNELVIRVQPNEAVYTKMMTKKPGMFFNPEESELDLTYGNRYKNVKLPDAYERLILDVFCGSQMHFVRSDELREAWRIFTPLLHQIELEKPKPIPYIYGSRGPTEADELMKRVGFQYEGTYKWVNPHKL

Beta-2 adrenergic receptor, sequence (P07550 whole entry): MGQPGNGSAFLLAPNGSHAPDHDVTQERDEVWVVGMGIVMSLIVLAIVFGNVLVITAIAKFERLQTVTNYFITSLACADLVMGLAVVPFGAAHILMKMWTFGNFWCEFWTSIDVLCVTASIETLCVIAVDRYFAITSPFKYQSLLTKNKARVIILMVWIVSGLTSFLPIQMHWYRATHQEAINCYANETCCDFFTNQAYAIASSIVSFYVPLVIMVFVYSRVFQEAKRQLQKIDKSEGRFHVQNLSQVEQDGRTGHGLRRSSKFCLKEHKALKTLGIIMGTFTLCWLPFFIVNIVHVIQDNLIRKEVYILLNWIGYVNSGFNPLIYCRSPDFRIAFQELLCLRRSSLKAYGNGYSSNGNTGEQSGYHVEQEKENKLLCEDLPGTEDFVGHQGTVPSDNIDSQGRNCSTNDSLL

With `O=C(NCCC1=CCCCC1)c1ccc(-n2cncn2)cc1` the AC50 [1] was > 350 µM (inactive).
In the case of `Cc1cc(C)c2c(N)c(-c3nnc(SCc4ccc(Cl)cc4)n3C)sc2n1`, the EC50 [2] was 0.252 µM (active).
With `COc1cccc(OCc2nnc(-c3cccs3)o2)c1` the IC50 [3] was 5.57 µM (active) and the EC50 [2] was 10.7 µM (inactive).
For `O=C(c1ccc(Cl)cc1)C(CN1CCCC1)c1ccccc1` (stereo not given), the EC50 [4] was > 120 µM (not active), the EC50 [5] was > 120 µM (not active) and the EC50 [6] was > 120 µM (not active). The IC50 [7] was > 25 µM (active) and the CC50 [8] was 23 µM (active).
In the case of `CCc1nnc(NC(=O)c2ccc(Cl)nc2)s1`, the IC50 [9] was > 80 µM (inactive).
